Several values for one entry are separate records, joined by “and”; a condition that tells them apart may be missing. Equal values may be shown once.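 Assay format: 96-well plates, 48-hour exposure. GI50: concentration for 50% inhibition of growth. TGI denotes the concentration required for complete inhibition of growth.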

Among the test systems are KM12 colon; MCF7 breast; MOLT-4 leukemia; HOP-62 NSCLC; PC-3 prostate; HOP-92 NSCLC; A498 renal; 786-0 renal; OVCAR-3 ovarian; M14 melanoma; OVCAR-4 ovarian; NCI-H460 lung; HS 578T breast; HCT-15 colon.
Holding throughout (test): inhibition of tumour cell growth, NCI panel, 48 h

Regarding `Clc1cc(Cl)cc(N=C/C=C/Nc2cc(Cl)cc(Cl)c2)c1`, the TGI in the assay with KM12 colon is 30.2 µM; with MCF7 breast, 27.2 µM; in the assay on MOLT-4 leukemia, 49.6 µM; with HOP-62 NSCLC it was 51.8 µM; in the assay on PC-3 prostate it was 36.6 µM; in the assay with HOP-92 NSCLC it was above 100 µM. For the same molecule, the TGI with A498 renal came out at 57.3 µM; in the assay on 786-0 renal, 31.4 µM; in the assay on OVCAR-3 ovarian it was 27.7 µM; in the assay on M14 melanoma it was 47.6 µM; in the assay on OVCAR-4 ovarian, 32.7 µM; in the assay on NCI-H460 lung, 43.5 µM. In addition, the figures for the TGI in the assay on HS 578T breast and in the assay with HCT-15 colon were above 100 µM and 30.6 µM, respectively.

For the molecule `O=C(c1cccs1)N(C(=S)OCCOc1ccccc1)c1ccccc1`, the TGI is 81 µM with KM12 colon; 44.6 µM with MCF7 breast; 67.9 µM in the assay on MOLT-4 leukemia; 72.5 µM in the assay on HOP-62 NSCLC; above 100 µM with PC-3 prostate; 45.9 µM in the assay with HOP-92 NSCLC. Also, the TGI in the assay with A498 renal was 50.5 µM; in the assay with 786-0 renal, 73.7 µM; in the assay with OVCAR-3 ovarian, 41.6 µM; in the assay with M14 melanoma it was 37.1 µM; with OVCAR-4 ovarian, 86.7 µM; in the assay with NCI-H460 lung, above 100 µM. For the same molecule, the TGI in the assay on HS 578T breast was above 100 µM; in the assay on HCT-15 colon, 84.7 µM.

Turning to `N[C@H](C(=O)O)[C@@H]1CC(Br)=NO1`, the TGI in the assay on KM12 colon, in the assay on MCF7 breast, with MOLT-4 leukemia, in the assay on HOP-62 NSCLC, with PC-3 prostate and with HOP-92 NSCLC was above 100 µM in each case. For the same molecule, the TGI in the assay with A498 renal, with 786-0 renal, in the assay on OVCAR-3 ovarian, in the assay on M14 melanoma, in the assay with OVCAR-4 ovarian and in the assay with NCI-H460 lung was above 100 µM each time. In addition, the TGI in the assay with HS 578T breast and in the assay on HCT-15 colon was above 100 µM each time.

Consider `O=c1[nH]c(=S)nc2nc3c4ccc[nH]c4c4ccccc4c3nc12`, for which the TGI in the assay with KM12 colon, with MCF7 breast, with MOLT-4 leukemia, in the assay on HOP-62 NSCLC, in the assay on PC-3 prostate and in the assay on HOP-92 NSCLC was above 100 µM in each case. The TGI in the assay with A498 renal, in the assay on 786-0 renal, with OVCAR-3 ovarian, in the assay on M14 melanoma, in the assay on OVCAR-4 ovarian and in the assay with NCI-H460 lung was above 100 µM throughout. Also, the TGI with HS 578T breast and in the assay with HCT-15 colon was above 100 µM each time.

Regarding `CCOP1(=O)CC(C)=C(Cl)C(O)C1` (configuration not stated), the TGI in the assay with KM12 colon, in the assay on MCF7 breast, in the assay on MOLT-4 leukemia, in the assay on HOP-62 NSCLC, in the assay with PC-3 prostate and in the assay with HOP-92 NSCLC was above 100 µM throughout. Besides, the TGI with A498 renal, in the assay with 786-0 renal, in the assay on OVCAR-3 ovarian, with M14 melanoma, in the assay on OVCAR-4 ovarian and in the assay with NCI-H460 lung was above 100 µM in each case. Besides, the TGI with HS 578T breast and with HCT-15 colon was above 100 µM in each case.

Turning to `CC(=O)Oc1ccc(/C=C/C(=O)OCCCOC(=O)/C=C/c2ccc(OC(C)=O)c(OC(C)=O)c2)cc1OC(C)=O`, the TGI in the assay with KM12 colon, in the assay with MCF7 breast, with MOLT-4 leukemia, with HOP-62 NSCLC, in the assay on PC-3 prostate and in the assay on HOP-92 NSCLC was above 100 µM in each case. Also, the TGI with A498 renal, in the assay with 786-0 renal, in the assay on OVCAR-3 ovarian, in the assay with M14 melanoma, in the assay on OVCAR-4 ovarian and in the assay with NCI-H460 lung was above 100 µM in each case. For the same molecule, the TGI with HS 578T breast and in the assay on HCT-15 colon was above 100 µM each time.

Regarding `NC(=O)C(=CNC(=S)Nc1ccccc1)C(N)=O`, the TGI in the assay with KM12 colon, with MCF7 breast, in the assay with MOLT-4 leukemia, in the assay on HOP-62 NSCLC, in the assay with PC-3 prostate and in the assay with HOP-92 NSCLC was above 100 µM throughout. Also, the TGI with A498 renal, in the assay with 786-0 renal, in the assay with OVCAR-3 ovarian, in the assay on M14 melanoma, in the assay with OVCAR-4 ovarian and in the assay on NCI-H460 lung was above 100 µM throughout. In addition, the TGI with HS 578T breast and in the assay on HCT-15 colon was above 100 µM in each case.

`CC(=O)NC1C(OCc2ccccc2)OC(CO)C(O)C1OC(C)C(=O)NC(C)C(=O)NC(CCC(=O)NCCCCNc1c2ccccc2nc2cccc([N+](=O)[O-])c12)C(N)=O` (configuration not stated): the TGI in the assay with KM12 colon worked out at 0.692 µM; in the assay with MCF7 breast, 0.652 µM; in the assay on MOLT-4 leukemia, 3.13 µM; in the assay on HOP-62 NSCLC, 0.683 µM; in the assay on PC-3 prostate it was 0.663 µM; in the assay on HOP-92 NSCLC, 0.101 µM. Also, the TGI stood at 0.297 µM with A498 renal; 0.146 µM in the assay with 786-0 renal; 1.64 µM in the assay with OVCAR-3 ovarian; 12.5 µM in the assay on M14 melanoma; 0.645 µM in the assay on OVCAR-4 ovarian; 0.0363 µM with NCI-H460 lung. For the same molecule, the TGI in the assay with HS 578T breast worked out at 0.562 µM; in the assay with HCT-15 colon, 0.0495 µM.

Regarding `O=[N+]([O-])c1ccc(OC2CC3C4C=CC3C2C4)c([N+](=O)[O-])c1` (configuration not stated), the GI50 in the assay on KM12 colon is above 100 µM; with MOLT-4 leukemia it was > 100 µM and 14.1 µM; in the assay on PC-3 prostate, above 100 µM; with A498 renal, 96.5 µM and > 31.6 µM; in the assay on NCI-H460 lung, above 100 µM; in the assay with HCT-15 colon, above 100 µM. Further, the TGI is above 100 µM with KM12 colon; above 100 µM in the assay on MCF7 breast; > 100 µM and 25.7 µM in the assay on MOLT-4 leukemia; above 100 µM in the assay on HOP-62 NSCLC; above 100 µM in the assay on PC-3 prostate; > 100 µM and 29.9 µM with HOP-92 NSCLC. In addition, the TGI with A498 renal was above 100 µM; in the assay with 786-0 renal, above 100 µM; with OVCAR-3 ovarian, above 100 µM; in the assay with M14 melanoma it was above 100 µM; in the assay on OVCAR-4 ovarian it was 76.3 µM and > 31.6 µM; with NCI-H460 lung, above 100 µM. For the same molecule, the TGI in the assay on HS 578T breast and with HCT-15 colon was above 100 µM in each case.

For the origin of these results see PubChem BioAssay (NCI).
